The assay concerns FGFR3 enzyme. In words: FGFR Enzymatic Assay (FRET peptide phosphorylation), FGFR3. In kind it is biochemical. As to conditions: IC50 ratio showing FGFR3 selectivity; Table 2A, pre-incubated for 4 hours. On the procedure:
The inhibitor potency of the exemplified compounds was measured in an enzyme assay that measures peptide phosphorylation using FRET measurements to detect product formation. Inhibitors were serially diluted in DMSO and a volume of 0.5 μL was transferred to the wells of a 384-well plate.
GraphPad prism3 was used to analyze the data.
For `COc1cc(OC)c(F)c(N2Cc3cnc(-c4cn(C)nc4C)cc3N(Cc3nnc(C)o3)C2=O)c1F` [Example 46, 3-(2,6-difluoro-3,5-dimethoxyphenyl)-7-(1,3-dimethyl-1H-pyrazol-4-yl)-1-[(5-methyl-1,3,4-oxadiazol-2-yl)methyl]-3,4-dihydropyrido[4,3-d]pyrimidin-2(1H)-one], the FGFR1/FGFR3 is over 10 and the FGFR4/FGFR3 was over 10.

Consider `CCN1C(=O)N(c2c(F)c(OC)cc(OC)c2F)Cc2cnc(-c3cn(CCN4CCOCC4)nc3C)cc21` [Example 49, 3-(2,6-difluoro-3,5-dimethoxyphenyl)-1-ethyl-7-(3-methyl-1-(2-morpholinoethyl)-1H-pyrazol-4-yl)-3,4-dihydropyrido[4,3-d]pyrimidin-2(1H)-one], for which the FGFR1/FGFR3 was over 5 and the FGFR4/FGFR3 is reported as over 1.

In the case of `CCN1C(=O)N(c2c(F)c(OC)cc(OC)c2F)Cc2cnc(-c3cn(CC(=O)N4CCOCC4)nc3C)cc21` [Example 51, 3-(2,6-difluoro-3,5-dimethoxyphenyl)-1-ethyl-7-(3-methyl-1-(2-morpholino-2-oxoethyl)-1H-pyrazol-4-yl)-3,4-dihydropyrido[4,3-d]pyrimidin-2(1H)-one], the FGFR1/FGFR3 is over 1 and the FGFR4/FGFR3 is over 1.

Take `COc1cc(OC)c(F)c(N2Cc3cnc(-c4cn(CCN5CCOCC5)nc4C)cc3C3(CC3)C2=O)c1F` [Example 52, 2′-(2,6-difluoro-3,5-dimethoxyphenyl)-6′-(3-methyl-1-(2-morpholinoethyl)-1H-pyrazol-4-yl)-1′H-spiro[cyclopropane-1,4′-[2,7]naphthyridin]-3′(2′H)-one]: the FGFR1/FGFR3 was over 10 and the FGFR4/FGFR3 is over 1.

Take `CCn1cnc(-c2cc3c(cn2)CN(c2c(F)c(OC)cc(OC)c2F)C(=O)C32CC2)c1` [Example 53, 2′-(2,6-difluoro-3,5-dimethoxyphenyl)-6′-(1-ethyl-1H-imidazol-4-yl)-1′H-spiro[cyclopropane-1,4′-[2,7]naphthyridin]-3′(2′H)-one]: the FGFR1/FGFR3 is reported as over 5 and the FGFR4/FGFR3 was over 5.

Take `COc1cc(OC)c(F)c(N2Cc3cnc(-c4cn(C5CCS(=O)(=O)C5)nc4C)cc3C3(CC3)C2=O)c1F` (stereo not shown) [Example 54, 2′-(2,6-difluoro-3,5-dimethoxyphenyl)-6′-[1-(1,1-dioxidotetrahydro-3-thienyl)-3-methyl-1H-pyrazol-4-yl]-1′,2′-dihydro-3′H-spiro[cyclopropane-1,4′-[2,7]naphthyridin]-3′-one]: the FGFR1/FGFR3 is over 5 and the FGFR4/FGFR3 is reported as over 1.

As to `COc1cc(OC)c(F)c(N2Cc3cnc(-c4cnn(C5(CC#N)CN(C(C)=O)C5)c4)cc3C3(CC3)C2=O)c1F` [Example 56, 2-(1-acetyl-3-(4-(2′-(2,6-difluoro-3,5-dimethoxyphenyl)-3′-oxo-2′,3′-dihydro-1′H-spiro[cyclopropane-1,4′-[2,7]naphthyridine]-6′-yl)-1H-pyrazol-1-yl)azetidin-3-yl)acetonitrile], the FGFR1/FGFR3 was over 5 and the FGFR4/FGFR3 is on record as over 1.

With `COc1cc(OC)c(F)c(N2Cc3cnc(-c4cn(C)nc4C)cc3N(c3ccnnc3)C2=O)c1F` [Example 57, 3-(2,6-difluoro-3,5-dimethoxyphenyl)-7-(1,3-dimethyl-1H-pyrazol-4-yl)-1-(pyridazin-4-yl)-3,4-dihydropyrido[4,3-d]pyrimidin-2(1H)-one], the FGFR1/FGFR3 is on record as over 10 and the FGFR4/FGFR3 is given as over 10.

As for `COc1cc(CN2C(=O)N(c3c(F)c(OC)cc(OC)c3F)Cc3cnc(-c4cn(C)nc4C)cc32)ccn1` [Example 58, 3-(2,6-difluoro-3,5-dimethoxyphenyl)-7-(1,3-dimethyl-1H-pyrazol-4-yl)-1-((2-methoxypyridin-4-yl)methyl)-3,4-dihydropyrido[4,3-d]pyrimidin-2(1H)-one], the FGFR1/FGFR3 is on record as over 10 and the FGFR4/FGFR3 was over 10.

Consider `COc1ccc(CN2C(=O)N(c3c(F)c(OC)cc(OC)c3F)Cc3cnc(-c4cn(C)nc4C)cc32)cn1` [Example 59, 3-(2,6-difluoro-3,5-dimethoxyphenyl)-7-(1,3-dimethyl-1H-pyrazol-4-yl)-1-((6-methoxypyridin-3-yl)methyl)-3,4-dihydropyrido[4,3-d]pyrimidin-2(1H)-one], for which the FGFR1/FGFR3 was over 10 and the FGFR4/FGFR3 was over 10.

As for `COc1cc(OC)c(F)c(N2Cc3cnc(-c4cn(C)nc4C)cc3N(c3cncnc3)C2=O)c1F` [Example 61, 3-(2,6-difluoro-3,5-dimethoxyphenyl)-7-(1,3-dimethyl-1H-pyrazol-4-yl)-1-(pyrimidin-5-yl)-3,4-dihydropyrido[4,3-d]pyrimidin-2(1H)-one], the FGFR1/FGFR3 is on record as over 10 and the FGFR4/FGFR3 was over 5.

Turning to `CNC(=O)c1ccc(CN2C(=O)N(c3c(F)c(OC)cc(OC)c3F)Cc3cnc(-c4cn(C)nc4C)cc32)cc1` [Example 62, 4-((3-(2,6-difluoro-3,5-dimethoxyphenyl)-7-(1,3-dimethyl-1H-pyrazol-4-yl)-2-oxo-3,4-dihydropyrido[4,3-d]pyrimidin-1(2H)-yl)methyl)-N-methylbenzamide], the FGFR1/FGFR3 is on record as over 10 and the FGFR4/FGFR3 is over 5.

As to `COc1cc(OC)c(F)c(N2Cc3cnc(-c4cn(C)nc4C)cc3N(c3ccc4ccncc4c3)C2=O)c1F` [Example 63, 3-(2,6-difluoro-3,5-dimethoxyphenyl)-7-(1,3-dimethyl-1H-pyrazol-4-yl)-1-(isoquinolin-7-yl)-3,4-dihydropyrido[4,3-d]pyrimidin-2(1H)-one], the FGFR1/FGFR3 is listed as over 10 and the FGFR4/FGFR3 is reported as over 5.

In the case of `CCc1cc(CN2C(=O)N(c3c(F)c(OC)cc(OC)c3F)Cc3cnc(-c4cn(C)nc4C)cc32)no1` [Example 64, 3-(2,6-difluoro-3,5-dimethoxyphenyl)-7-(1,3-dimethyl-1H-pyrazol-4-yl)-1-((5-ethylisoxazol-3-yl)methyl)-3,4-dihydropyrido[4,3-d]pyrimidin-2(1H)-one], the FGFR1/FGFR3 is on record as over 10 and the FGFR4/FGFR3 is reported as over 10.

With `COc1cc(OC)c(F)c(N2Cc3cnc(-c4cn(C)nc4C)cc3N(Cc3ccncn3)C2=O)c1F` [Example 65, 3-(2,6-difluoro-3,5-dimethoxyphenyl)-7-(1,3-dimethyl-1H-pyrazol-4-yl)-1-(pyrimidin-4-ylmethyl)-3,4-dihydropyrido[4,3-d]pyrimidin-2(1H)-one], the FGFR1/FGFR3 was over 5 and the FGFR4/FGFR3 is reported as over 10.

Turning to `COc1cc(OC)c(F)c(N2Cc3cnc(-c4cn(C)nc4C)cc3N(c3ccc(F)c(C#N)c3)C2=O)c1F` [Example 66, 5-(3-(2,6-difluoro-3,5-dimethoxyphenyl)-7-(1,3-dimethyl-1H-pyrazol-4-yl)-2-oxo-3,4-dihydropyrido[4,3-d]pyrimidin-1(2H)-yl)-2-fluorobenzonitrile], the FGFR1/FGFR3 is recorded as over 5 and the FGFR4/FGFR3 is over 5.

Take `CCc1nnc(CN2C(=O)N(c3c(F)c(OC)cc(OC)c3F)Cc3cnc(-c4cn(C)nc4C)cc32)o1` [Example 67, 3-(2,6-difluoro-3,5-dimethoxyphenyl)-7-(1,3-dimethyl-1H-pyrazol-4-yl)-1-((5-ethyl-1,3,4-oxadiazol-2-yl)methyl)-3,4-dihydropyrido[4,3-d]pyrimidin-2(1H)-one]: the FGFR1/FGFR3 is recorded as over 5 and the FGFR4/FGFR3 is recorded as over 10.

Values taken from US11173162B2, “Bicyclic heterocycles as FGFR4 inhibitors” (Incyte Corporation, priority 2015, dated 2021).
